# Reference: US20080268044A1, “Novel Process and Formulations” (Glaxo Group Limited, priority 2005, published 2008)
# Experiment: Comparison of salt forms (solubility, stability)
# Type: physicochemical
compound,measurement,value
"Cc1cc(F)ccc1-c1nc(NC(CO)CO)nc2c1ccc(=O)n2-c1c(F)cccc1F [sulphate, 8-(2,6-difluorophenyl)-4-(4-fluoro-2-methylphenyl)-2-{[2-hydroxy-1-(hydroxymethyl)ethyl]amino}pyrido[2,3-d]pyrimidin-7(8H)-one]",stability of salt forms (comparison),less stable than the other salt forms
